This is an account of results in patent US9527885B2, “Hepatitis C virus inhibitors” (BRISTOL-MYERS SQUIBB COMPANY, priority 2011, dated 2016).

What is called pEC50 is the negative decadic logarithm of the EC50, by convention in mol/L.

The subject of assay [1] is HCV genotype 1a (H77 strain) replicon in HUH-7 cells. Briefly: HCV replicon luciferase reporter assay, genotype 1a. It is filed as cell-based. As to conditions: Hepatitis C virus, Huh-7, 72 h, 3 days incubation, read-out: LE_1a (EC50, range). The method, boiled down: (§1)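 Twenty-point, threefold compound titrations (0.5% DMSO) were incubated 3 days at 37 °C with 3.0×10^3 HUH-7 cells/well in 4% FCS. The cells stably carried luciferase replicons: genotype 1b Con1 (S1179I) or 1a H77 (NS3 P1496L, NS5A S2204I). Renilla signal was read after 2 h with 7.5 μM EnduRen, and EC50 was taken from a four-parameter logistic fit. Cytotoxicity (CC50) was measured by Cell Titer-Blue, 8 h.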

Assay [2] concerns HCV genotype 1b (Con1) replicon in HUH-7 cells. Briefly: HCV replicon luciferase reporter assay, genotype 1b. The format is cell-based. The settings on record: Hepatitis C virus, 72 h, 3 days incubation, read-out: LE_1b (EC50, range). A digest of the protocol:
as §1
In general terms: In antiviral work, replicon cells carry a viral genome segment that copies itself.

[3] abbreviates: HCV genotype 1a replicon luciferase, range class.
[4] abbreviates: HCV genotype 1b replicon luciferase, range class.
The mark [5] stands for this setting: HCV genotype 1a replicon luciferase reporter, range class.
Setting [6] is: HCV genotype 1b replicon luciferase reporter, range class.

pEC50: −log10 of the molar value. Where two headings read alike, the source gives them in different places. Where only a bound is given, the exact number is not on record here.

On to `COc1ccc2c(O[C@@H]3C[C@H]4C(=O)N[C@]5(C(=O)NS(=O)(=O)C6CC6)C[C@H]5/C=C\CC[C@@H](C)C[C@@H](C)[C@H](NC(=O)O[C@@H]5C[C@@H]6C[C@@H]6C5)C(=O)N4C3)nc(-c3ccc(N4CCOCC4)cc3)cc2c1` [Compound 5195, (1R,3r,5S)-bicyclo[3.1.0]hexan-3-yl ((2R,6S,7R,9R,13aS,14aR,16aS,Z)-14a-((cyclopropylsulfonyl)carbamoyl)-2-((6-methoxy-3-(4-morpholinophenyl)isoquinolin-1-yl)oxy)-7,9-dimethyl-5,16-dioxo-1,2,3,5,6,7,8,9,10,11,13a,14,14a,15,16,16a-hexadecahydrocyclopropa[e]pyrrolo[1,2-a][1,4]diazacyclopentadecin-6-yl)carbamate], for which the negative-log EC50 (pEC50) in assay [1] (setting [3]) and in assay [2] (setting [4]) was greater than 8.26 each time.
For the molecule `COc1cnc(O[C@@H]2C[C@H]3C(=O)N[C@]4(C(=O)NS(=O)(=O)C5CC5)C[C@H]4/C=C\CC[C@@H](C)C[C@@H](C)[C@H](NC(=O)OC(C)(C)C(F)(F)F)C(=O)N3C2)c2ccccc12` [Compound 3, 1,1,1-trifluoro-2-methylpropan-2-yl ((2R,6S,7R,9R,13aS,14aR,16aS,Z)-14a-((cyclopropylsulfonyl)carbamoyl)-2-((4-methoxyisoquinolin-1-yl)oxy)-7,9-dimethyl-5,16-dioxo-1,2,3,5,6,7,8,9,10,11,13a,14,14a,15,16,16a-hexadecahydrocyclopropa[e]pyrrolo[1,2-a][1,4]diazacyclopentadecin-6-yl)carbamate], the pEC50 in assay [1] (setting [5]) and in assay [2] (setting [6]) was greater than 8.26 each time.
Take `CCCOc1ccc2c(O[C@@H]3C[C@H]4C(=O)N[C@]5(C(=O)NS(=O)(=O)C6CC6)C[C@H]5/C=C\CC[C@@H](C)C[C@@H](C)[C@H](NC(=O)OC(C(F)(F)F)(C(Cl)(Cl)Cl)C(Cl)(Cl)Cl)C(=O)N4C3)nccc2c1` [Compound 5173, 1,1,1,3,3,3-hexachloro-2-(trifluoromethyl)propan-2-yl ((2R,6S,7R,9R,13aS,14aR,16aS,Z)-14a-((cyclopropylsulfonyl)carbamoyl)-7,9-dimethyl-5,16-dioxo-2-((6-propoxyisoquinolin-1-yl)oxy)-1,2,3,5,6,7,8,9,10,11,13a,14,14a,15,16,16a-hexadecahydrocyclopropa[e]pyrrolo[1,2-a][1,4]diazacyclopentadecin-6-yl)carbamate]: the pEC50 in assay [1] (setting [3]) and in assay [2] (setting [4]) was greater than 8.26 throughout.
`COc1ccc2c(O[C@@H]3C[C@H]4C(=O)N[C@]5(C(=O)NS(=O)(=O)C6(C)CC6)C[C@H]5/C=C\CC[C@H](C)C[C@@H](C)[C@H](NC(=O)OC(C)(C)C(F)(F)F)C(=O)N4C3)nc(N(C)C)cc2c1` [Compound 3116, 1,1,1-trifluoro-2-methylpropan-2-yl ((2R,6S,7R,9S,13aS,14aR,16aS,Z)-2-((3-(dimethylamino)-6-methoxyisoquinolin-1-yl)oxy)-7,9-dimethyl-14a-(((1-methylcyclopropyl)sulfonyl)carbamoyl)-5,16-dioxo-1,2,3,5,6,7,8,9,10,11,13a,14,14a,15,16,16a-hexadecahydrocyclopropa[e]pyrrolo[1,2-a][1,4]diazacyclopentadecin-6-yl)carbamate]: the results for the pEC50 in assay [1] (setting [5]) and in assay [2] (setting [6]) were 6.99 to 8.32 and greater than 8.26, respectively.
Take `CC[C@@H]1C[C@H](C)CC/C=C\[C@@H]2C[C@@]2(C(=O)NS(=O)(=O)C2(C)CC2)NC(=O)[C@@H]2C[C@@H](Oc3ncc(OC)c4ccc(F)cc34)CN2C(=O)[C@H]1NC(=O)OC(C)(C)C(F)(F)F` [Compound 4186, 1,1,1-trifluoro-2-methylpropan-2-yl (2R,6S,7R,9R,13aS,14aR,16aS,Z)-7-ethyl-2-(7-fluoro-4-methoxyisoquinolin-1-yloxy)-9-methyl-14a-(1-methylcyclopropylsulfonylcarbamoyl)-5,16-dioxo-1,2,3,5,6,7,8,9,10,11,13a,14,14a,15,16,16a-hexadecahydrocyclopropa[e]pyrrolo[1,2-a][1,4]diazacyclopentadecin-6-ylcarbamate]: the pEC50 in assay [1] (HCV genotype 1a replicon luciferase, class symbols) is greater than 8.26; in assay [2] (HCV genotype 1b replicon luciferase, class symbols) it was greater than 8.26.
